US20230248718A1, “PHARMACEUTICAL COMBINATION OF ANTISPASMODIC AND ANXIOLYTIC AGENT” (priority 2022, published 2023)
Counter-ions that a name gives are not always drawn.

Tests used:
[1] = cited from earlier work
[2] = Protocol: Therefore, drug-interaction studies were undertaken by the inventors and the samples were evaluated for chemical stability.
[3] = cited from earlier work; remark: listed apart in the source
[4] = oral, 80 mg strength IR tablets; cited from earlier work

CNC1=Nc2ccc(Cl)cc2C(c2ccccc2)=[N+]([O-])C1.Cl [Chlordiazepoxide HCl, Chlordiazepoxide hydrochloride]
plasma levels after administration is discontinued ([1]; after discontinuation): decline slowly over a period of several days | half-life ([1]; in vivo): 24 to 48 h | time for peak blood levels to be reached ([1]; in vivo): several hours

CCOc1ccc(/C=C2\NCCc3cc(OCC)c(OCC)cc32)cc1OCC [Drotaverine HCl, Drotaverine hydrochloride]
chemical stability / degradation in acidic environment [2]: best chemical stability | degradation in basic conditions [2]: degrades significantly | degradation in oxidative conditions / peroxide solution [2]: degrades significantly

CCOc1ccc(/C=C2\NCCc3cc(OCC)c(OCC)cc32)cc1OCC [Drotaverine]
oral LD50 [3]: > 1000 mg/Kg body weight | drug absorption from small intestine [4]: ~90%
